The values that follow come from publication PMC10960705 (Cell chemical biology, 2023).

SMILES strings stand for the structures.

Common to all, as to format: cell-based
In assay [1] the target is peptidyl-prolyl cis/trans isomerase PIN1 (Homo sapiens, UniProt Q13526). Description: TMT-ABPP dose-response competition with DBIA probe in lysate.
The next assay addresses VLDLR (Homo sapiens, UniProt P98155). Description: TMT-ABPP competition with DBIA probe in lysate.
The target of a further assay is KRAS^G12C (Homo sapiens, UniProt P01116, G12C). As to the kind of experiment: TMT-ABPP competition with DBIA probe in HCC44 lysate, […], […] hr.

Chain of peptidyl-prolyl cis/trans isomerase PIN1 (Q13526 whole entry): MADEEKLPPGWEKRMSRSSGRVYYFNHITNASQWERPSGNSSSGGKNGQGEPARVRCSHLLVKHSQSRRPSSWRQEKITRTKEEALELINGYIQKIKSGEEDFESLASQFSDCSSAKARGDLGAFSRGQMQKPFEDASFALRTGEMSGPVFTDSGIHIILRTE

`CC(C)(C)CN(C(=O)CCl)C1CCS(=O)(=O)C1` (stereo not drawn) [Sulfopin]: the “TMT-ABPP dose-response competition with DBIA probe in lysate” value in assay [1] was “Sulfopin is the most potent among the four whereas CL41 is the least”.

For `C=CC(=O)N1CCCC(n2ccnn2)CC1` (stereo not drawn) [AC19, 1-(4-(1H-1,2,3-triazol-1-yl)azepan-1-yl)prop-2-en-1-one], the “TMT-ABPP competition with DBIA probe in lysate” value on VLDLR was “reside in their respective EGF-like domains and were all exclusively and significantly engaged by AC19”.

`C=CC(=O)N1CCN(c2ncnc3c(F)c(-c4c(O)cccc4F)c(Cl)cc23)CC1` [ARS-1620]: the “TMT-ABPP competition with DBIA probe in HCC44 lysate, 50 μM, 1 hr” value on KRAS^G12C is given as 2.7 competition ratio (CR) at 50 μM.
